Structures can show the parent of a compound that is named as a salt. Where two headings read alike, the source gives them in different places.

Test [1] relates to MHC class II expression in B220 positive B cells of mouse spleen cells. Description: In vitro MHC class II expression inhibitory effect using mouse spleen cells (LPS-stimulated B cells, flow cytometry). It is filed as cell-based, C57BL/6 mice. Conditions: B-cell, read-out: IC50 value of MHC class II expression inhibition (Data 2). On the procedure: Test Example 2 Evaluation of In Vitro MHC Class II Expression Inhibitory Effect Using Mouse Spleen Cells (Cell Evaluation System)
In antigen-presenting cells, the inhibition of cathepsin S inhibits the expression of MHC class II molecules. […] For an increased expression of MI-IC class II in B cells, the inhibitory effect of the compound represented by formula (I) was examined.
First, spleen cells collected from C57BL/6 mice were seeded in a 96-well plate so as to be a 1×10^5 cells/well, then, 5-fold dilution of 10 mM DMSO solution of the test compound was serially performed with RPMI 1640 medium (including 10% fetal bovine serum (FCS), 5×10^−5 M 2-mercaptoethanol, 50 IU/mL penicillin and 50 μg/mL streptomycin) nine times such that the final concentration becomes 0.026 nM to 10 μM, and the resultant products were added thereto (the final DMSO concentration was 0.1%). At the same time, LPS (Sigma L4005) was added to the wells such that the final concentration becomes 2 μg/mL, and culture was performed at 37° C. for 48 hours in 5% CO2. After culturing, the cells were stained at 4° C. for 20 minutes with PE-labeled streptavidin (BD BIOSCIENCE 554061) and biotin-labeled YAe antibody (EBIOSCIENCE 13-5741-85) together with FITC-labeled anti-mouse B220 antibody (BD BIOSCIENCE 553088), and an expression level (fluorescence intensity of YAe-biotin/streptavidin-PE) of MHC class II to which Ea peptide in B220 positive B cells was bonded was measured using a flow cytometry system (Guava EasyCyte Plus System, manufactured by Millipore Corporation). A value at the time of unstimulation of LPS in which the test compound was not added and a value at the time of stimulation of LPS in which the test compound was not added were set to 100% inhibition and 0% inhibition, respectively, then, an inhibition rate at each concentration was determined, and IC50 values were calculated by a linear regression method. In the Table, Ex represents Example compound No., and Data 2 represents an IC50 value (nM).
(In general: Flow cytometry measures light scatter and fluorescence of single cells or particles in a stream.)

Test [2] deals with human cathepsin S (Homo sapiens (Human), UniProt P25774). The experiment in a line: In vitro human cathepsin S inhibitory activity (VVR-AMC fluorescence). The format is biochemical. Conditions: human cathepsin S enzyme, substrate VVR-AMC 40 μM, pH 4.5, 37° C.; read-out: IC50 value of the human cathepsin S inhibitory activity (Data 1). On the procedure: Test Example 1 Measurement of a In Vitro Human Cathepsin S Inhibitory Activity
Sequence of human cathepsin S (P25774 115-331): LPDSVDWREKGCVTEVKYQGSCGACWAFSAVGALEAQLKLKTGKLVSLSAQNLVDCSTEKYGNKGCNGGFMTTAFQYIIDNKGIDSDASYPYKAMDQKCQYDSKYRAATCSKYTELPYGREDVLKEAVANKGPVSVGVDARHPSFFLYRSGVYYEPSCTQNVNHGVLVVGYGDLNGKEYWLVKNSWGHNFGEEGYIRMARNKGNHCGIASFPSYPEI
5 μL of a human cathepsin S enzyme (R&D1183-CY-010) was added to a 96-well plate so as to be 20 ng/well. […] A reaction rate at the time of not adding an enzyme in which the test compound was not added and a reaction rate at the time of adding an enzyme in which the test compound was not added were set to 100% inhibition and 0% inhibition, respectively, then, an inhibition rate at each concentration was determined, and IC50 values were calculated by a linear regression method. In the Table, Ex represents Example compound No., and Data 1 represents an IC50 value (nM) of the human cathepsin S inhibitory activity.

Test [3] relates to MHC class II expression in peripheral blood B cells. Description: Ex vivo MHC class II expression inhibitory effect using mouse peripheral blood after oral administration. The format is in vivo, C57BL/6 mice. Conditions: blood collected after 3 hours, LPS 15 hours. Here is the method:
Test Example 3 Evaluation of Ex Vivo MHC Class II Expression Inhibitory Effect Using Mouse Peripheral Blood
The expression inhibitory effect of MHC class II molecules was evaluated in an ex vivo system.
The test compound was orally administered into C57BL/6mice, and the inhibitory effect with respect to the increased expression of MHC class II in B cells in peripheral blood after oral administration was examined. That is, 10 mL/kg of the test compound dissolved in a vehicle (30% propylene glycol solvent (propylene glycol:cured castor oil (HCO40):Tween 80=4:2:1)/HCl (2 equivalents with respect to the test compound)/water) was orally administered (dose: 0.1 mg/kg, 0.3 mg/kg, 1 mg/kg, or 3 mg/kg) to a C57BL/6mice, and the peripheral blood was collected after 3 hours. 10 μL of RPMI 1640 medium (including 5×10^−5 M of 2-mercaptoethanol, 50 IU/mL of penicillin, and 50 μg/mL of streptomycin) or 10 μL of LPS adjusted with the medium such that the final concentration becomes 100 μg/mL was added to 90 μL of the peripheral blood, and culture was performed at 37° C. for 15 hours in 5% CO2. After culturing, the cells were stained at 4° C. for 30 minutes with FITC-labeled anti-mouse I-A/I-E antibody (BD BIOSCIENCE 553623) and PE-labeled B220 antibody (BD BIOSCIENCE 553090), and hemolysis and fixation were performed at 37° C. for 10 minutes using a buffer (BD BIOSCIENCE Phosflow Lyse/Fix Buffer 558049). After washing, using a flow cytometry system (FACSCanto II, manufactured by BD BIOSCIENCE), an expression level of MHC class II on a B220 positive B cell surface was measured by using a fluorescence intensity of FITC (hereinafter, referred to as MFI) as an indicator. The difference between a MFI at the time of stimulation of LPS and a MFI at the time of unstimulation of LPS was set to a ΔMFI, a ΔMFI of a mouse in which 10 mL/kg of only vehicle was administered was set to 1, and the inhibition rate of ΔMFI by the test compound administration was calculated.

Test [4] concerns OVA specific IgG antibody titer. Description: Antibody production inhibitory effect in mouse OVA-induced antibody production model. The format is in vivo, BALB/c male mice. Here is the method: Test Example 4 Evaluation of Antibody Production Inhibitory Effect in Mouse OVA-Induced Antibody Production Model
Evaluation of an antibody production inhibitory effect in vivo was performed.
The BALB/c male mice were sensitized by intraperitoneal administration of 200 μL of an emulsion consisting of 100 μg of ovalbumin (OVA) (SIGMA A5503) and 100 μL of a complete Freund's adjuvant (CFA) (DIFCO 231131) (Day 0), and a week after that, the mice were sensitized by intraperitoneal administration of 200 μL of an emulsion consisting of 50 μg of OVA and 100 μL of an incomplete Freund's adjuvant (IFA) (DIFCO 263910) (Day 7). The test compound dissolved in a vehicle (30% propylene glycol solvent (propylene glycol:HCO40:Tween 80=4:2:1)/HCl (2 equivalents with respect to the test compound)/water) was orally administered (dose: 0.3 mg/kg, 1 mg/kg, or 3 mg/kg) at 10 mL/kg/day from Day 0 to Day 14, and an OVA specific IgG antibody titer in blood plasma at Day 14 was evaluated. Measurement of antibody titer was carried out using a blood plasma sample which was diluted 40,000 times by an ELISA method, and the antibody titer was represented as a ratio with respect to control blood plasma. An antibody titer of a mouse to which the vehicle was orally administered at 10 mL/kg/day from Day 0 to Day 14 was set to 0% inhibition, an antibody titer of a normal mouse to which the vehicle was orally administered at 10 mL/kg/day from Day 0 to Day 14 and which was not sensitized with OVA was set to 100% inhibition, and the inhibition rate at the time of the test compound administration was calculated.

Test [5] concerns SLE spontaneous model. The experiment in a line: SLE onset inhibitory effect in spontaneous model using NZB/W F1 mouse. The format is in vivo, NZB/W F1 female mice. Conditions: oral 0.3 mg/kg once a day from 20 weeks old, at 41 weeks old. Here is the method:
NZB/W F1 mice are used as a model of SLE that spontaneously develops a condition close to humans ([…] et al, Proceedings of the university otago medical school (New Zealand), 1961, Vol. 39, p. 3; Advances in Immunology, 1985, Vol. 37, p. 269-390; Perry et al, Journal of Biomedicine and Biotechnology, 2011, Article ID 271694, Review Article). […] At this time, an individual having greater than 100 mg/dL of urine protein was excluded. […] Furthermore, a pathology evaluation of kidney tissue in the above Test 5 was performed. […] In accordance with histological classification of lupus nephritis by WHO, a histopathological image was classified into Class I (normal glomerulus), Class II (mesangium lesion), Class III (focal segmental glomerulonephritis), Class IV (diffuse glomerulonephritis), and Class VI (progressive sclerosing lupus nephritis).

Where [6] appears, read: C57BL/6 spleen cells, LPS 2 μg/mL, 48 hours, B220 positive B cells.
The mark [7] stands for this setting: oral 1 mg/kg daily Day 0 to Day 14, titer at Day 14.

As a reminder, the IC50 is the concentration that gives 50% inhibition. As for `CN1CCC[C@H]1C(=O)N1CCC(CCOc2ccc(-c3nc(C#N)nc4c3ccn4CC3CCCO3)cc2C(F)(F)F)CC1` (stereo partly drawn) [Example 15, 4-[4-{2-[1-(1-methyl-L-prolyl)piperidin-4-yl]ethoxy}-3-(trifluoromethyl)phenyl]-7-(tetrahydrofuran-2-ylmethyl)-7H-pyrrolo[2,3-d]pyrimidine-2-carbonitrile monohydrochloride], the IC50 in test [1] (setting [6]) came out at 2.1 nM; in test [2], 3.4 nM.

For the compound `CN1CCC[C@@H]1C(=O)N1CC[C@@H](OCCOc2ncc(-c3nc(C#N)nc4c3ccn4C)cc2C(F)(F)F)C1` [Example 158], the “inhibition rate of ΔMFI (increased expression of MHC class II in peripheral blood B cells)” value in test [3] (oral 0.3 mg/kg) stood at 59±1.5%. For the same compound, the half-maximal inhibitory concentration (IC50) in test [1] (setting [6]) was 0.62 nM.

`CN1CCC[C@@H]1C(=O)N1CCC(CCOc2ccc(-c3nc(C#N)nc4c3ncn4C)cc2C(F)(F)F)CC1` [Example 6, 9-methyl-6-[4-{2-[1-(1-methyl-D-prolyl)piperidin-4-yl]ethoxy}-3-(trifluoromethyl)phenyl]-9H-purine-2-carbonitrile]: the IC50 in test [1] (setting [6]) worked out at 0.69 nM; in test [2], 3.4 nM.

For `Cl.Cn1cnc2c(-c3cnc(OCCC4CCNCC4)c(C(F)(F)F)c3)nc(C#N)nc21` [Example 28, 9-methyl-6-{6-[2-(piperidin-4-yl)ethoxy]-5-(trifluoromethyl)pyridin-3-yl}-9H-purine-2-carbonitrile monohydrochloride], the “inhibition of OVA specific IgG antibody titer in blood plasma” value (from here on “inhibition … in blood plasma”) in test [4] (setting [7]) was 83±2%. Further, in test [3] (oral 0.3 mg/kg), the “inhibition rate of ΔMFI (increased expression of MHC class II in peripheral blood B cells)” value is given as 40±1.4%.

Turning to `CN(C)C(=O)CN1CCC(CCOc2ccc(-c3nc(C#N)nc4c3ccn4C)cc2C(F)(F)F)CC1` [Example 3, 2-(4-{2-[4-(2-cyano-7-methyl-7H-pyrrolo[2,3-d]pyrimidin-4-yl)-2-(trifluoromethyl)phenoxy]ethyl}piperidin-1-yl)-N,N-dimethylacetamide], the IC50 worked out at 1 nM in test [1] (setting [6]) and 2.6 nM in test [2].

Consider `Cl.Cn1ccc2c(-c3ccc(OCCC4CCNCC4)c(C(F)(F)F)c3)nc(C#N)nc21` [Example 2, 7-methyl-4-{4-[2-(piperidin-4-yl)ethoxy]-3-(trifluoromethyl)phenyl}-7H-pyrrolo[2,3-d]pyrimidine-2-carbonitrile monohydrochloride], for which the “inhibition … in blood plasma” value in test [4] (setting [7]) came out at 61±10%. Further, the IC50 in test [1] (setting [6]) turned out to be 1.2 nM; in test [2] it was 2.3 nM.

Turning to `CN1CCC(NC(=O)Cn2ccc3c(-c4ccc(OCCC5CCOCC5)c(C(F)(F)F)c4)nc(C#N)nc32)CC1` [Example 47], the IC50 in test [1] (48 h) was found to be 2 nM; in test [2] it was 2.1 nM.

As to `CN1CCC[C@H]1C(=O)N1CCC(CCOc2ccc(-c3nc(C#N)nc4c3ncn4CC3CCOC3)cc2C(F)(F)F)CC1` (stereo partly shown) [Example 77], the IC50 in test [1] (setting [6]) is 1.5 nM; in test [2], 2.7 nM.

Regarding `CCN1CCC(CCOc2ncc(-c3nc(C#N)nc4c3ncn4C)cc2C(F)(F)F)CC1` [Example 39, 6-{6-[2-(1-ethylpiperidin-4-yl)ethoxy]-5-(trifluoromethyl)pyridin-3-yl}-9-methyl-9H-purine-2-carbonitrile], the “inhibition … in blood plasma” value in test [4] (oral 0.3 mg/kg daily Day 0 to Day 14, titer at Day 14) came to 74±8%. The “inhibition rate of ΔMFI (increased expression of MHC class II in peripheral blood B cells)” value in test [3] (oral 1 mg/kg) was 61±1.2%. The “average anti-dsDNA IgG antibody titer” value in test [5] (10 cases, ELISA) was 9,263±1,700 mU/mL. Further, the urine protein in test [5] (all individuals of 10 cases) is ≤ 100 mg/dL. Moreover, the 50% inhibitory concentration (IC50) in test [1] (setting [6]) came to 0.61 nM.

(Values after patent publication US9328118B2, “Nitrogen-containing bicyclic aromatic heterocyclic compound” (ASTELLAS PHARMA INC., priority 2012, dated 2016).)
